pEC50: −log10 of the molar value.

For this assay, the target named is T1, human mAChR M1 (Homo sapiens, UniProt P11229).
T1 construct: host or cells: CHO-K1 (ATCC), stably transfected using Lipofectamine 2000
T1 sequence (P11229 1-460): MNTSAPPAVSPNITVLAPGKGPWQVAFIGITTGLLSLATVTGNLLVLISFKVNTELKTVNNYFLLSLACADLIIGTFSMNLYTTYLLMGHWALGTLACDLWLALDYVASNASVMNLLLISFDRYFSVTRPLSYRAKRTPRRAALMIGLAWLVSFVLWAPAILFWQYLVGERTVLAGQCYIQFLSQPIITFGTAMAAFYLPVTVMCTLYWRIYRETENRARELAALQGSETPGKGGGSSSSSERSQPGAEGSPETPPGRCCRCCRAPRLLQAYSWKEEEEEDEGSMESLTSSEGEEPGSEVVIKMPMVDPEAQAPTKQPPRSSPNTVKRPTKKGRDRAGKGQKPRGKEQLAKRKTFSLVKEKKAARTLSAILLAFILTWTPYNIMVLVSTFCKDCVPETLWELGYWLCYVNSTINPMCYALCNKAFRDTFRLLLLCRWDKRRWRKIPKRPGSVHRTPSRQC
In words: mAChR M1 cell-based functional assay (calcium mobilization, Fluo-4, FDSS). The settings on record: CHO-K1 cells stably expressing hM1, calcium flux. A digest of the protocol:
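CHO-K1 cells stably expressing hM1 loaded with Fluo-4 AM. Compound added at 4 s, acetylcholine EC20 at 144 s and EC80 at 230 s, with FDSS fluorescence ratio read at 1 Hz. Agonist, PAM (EC20 potentiation) and antagonist (EC80 decrease) activity; EC50 and Emax from four-parameter logistic fit.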

As for `Cn1cnc2ccc(-c3cc(F)c(CN4Cc5sccc5C4=O)c(F)c3)cc21` [Compound 27, 5-(2,6-difluoro-4-(1-methyl-1H-benzo[d]imidazol-6-yl)benzyl)-5,6-dihydro-4H-thieno[2,3-c]pyrrol-4-one], where the note is “PAM mode with EC20 acetylcholine”, the maximal response (Emax) worked out at 60%. The negative logarithm of the EC50 (pEC50) (concentration-dependent increase in the EC20 acetylcholine response) is 5.54.

In general, Emax refers to the maximal effect, on the per cent scale that the assay sets. As usually defined, the pEC50 is the negative decadic logarithm of the EC50, by convention in mol/L.

Values taken from patent US20190330226A1, “POSITIVE ALLOSTERIC MODULATORS OF THE MUSCARINIC ACETYLCHOLINE RECEPTOR M1” (Vanderbilt University, priority 2018, published 2019).
